Laboratory results published in patent US20220017486A1, “DOCK1-INHIBITING COMPOUND AND USE THEREOF” (KYUSHU UNIVERSITY, NATIONAL UNIVERSITY CORPORATION, priority 2018, published 2022).

What was measured:
DOCK1 (DHR-2 domain) = biological target: T1, DOCK1 (DHR-2 domain) (Homo sapiens, UniProt Q14185); test: In vitro GEF assay: Rac activation by DOCK1 DHR-2 domain; format: biochemical, mice and humans; settings: in words; for selective inhibitory activity against DOCK1 versus DOCK2: GEF assay DOCK1 vs DOCK2 DHR-2 domain
T1 construct: polypeptide fragments corresponding to the DHR-2 domain of DOCK1 or DOCK2 from mice and humans; Histidine-SUMO (N); made in house; host or cells: E. coli Arctic express (DE3)
T1 sequence (Q14185 1207-1617 limits assumed): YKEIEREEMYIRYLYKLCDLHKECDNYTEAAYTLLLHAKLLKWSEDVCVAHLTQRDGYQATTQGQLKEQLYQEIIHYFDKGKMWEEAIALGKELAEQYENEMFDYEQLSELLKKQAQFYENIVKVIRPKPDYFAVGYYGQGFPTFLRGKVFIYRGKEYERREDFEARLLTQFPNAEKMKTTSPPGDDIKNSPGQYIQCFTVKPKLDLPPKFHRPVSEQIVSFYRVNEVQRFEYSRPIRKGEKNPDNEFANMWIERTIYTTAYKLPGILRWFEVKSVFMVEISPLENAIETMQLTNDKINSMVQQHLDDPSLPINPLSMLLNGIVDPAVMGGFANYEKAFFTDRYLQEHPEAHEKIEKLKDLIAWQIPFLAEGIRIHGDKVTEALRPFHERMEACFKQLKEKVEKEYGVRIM
Protocol: DOCK1 and DOCK2, i.e., DOCK-A subfamily members, both activate Rac by catalyzing the GTP-GDP exchange reaction for Rac via their DHR-2 domains. Therefore, in this Pharmacological Test, the inhibitory effect of the compounds of the present invention on Rac activation by DOCK1 or DOCK2 was assessed in an in vitro GEF assay by using polypeptide fragments corresponding to the DHR-2 domain of DOCK1 or DOCK2 from mice and humans. The in vitro GEF assay was performed using a labeled GTP (Bodipy-FL-GTP, Invitrogen), which has a property of increasing the fluorescence intensity when bound to Rac.
The polypeptide fragments corresponding to the DHR-2 domain of DOCK1 or DOCK2 were prepared by expression in E. coli Arctic express (DE3) cells as N-terminal. Histidine-SUMO tag-fused recombinant proteins, followed by purification by affinity column chromatography on nickel-NTA columns.
Rac was prepared by expression in E. coli BL21 (DE3) cells as an N-terminal GST tag-fused recombinant protein, followed by purification by affinity column chromatography on glutathione-Sepharose columns.
Each of the polypeptide fragments corresponding to the DHR-2 domain of DOCK1 or DOCK2, and a predetermined concentration of each test compound (the compounds of the present invention: 33 types of compounds; and comparative compound: TBOPP) dissolved in DMSO were incubated in a reaction solution A (pH 7.0), which contained 20 mM of MES-NaOH, 150 mM of NaCl, 10 mM of MgCl2, and 20 μM of GDP for 20 minutes at room temperature while being shielded from light to thus prepare GEF pretreated products. The final concentration of DMSO was adjusted to 1 mass % in all of the test samples. For a control test, a GEF pretreated product (control) was prepared by incubation in the same manner using DMSO with no test compounds, instead of the DMSO used above in which each test compound was dissolved.
Separately, Rac was added to the reaction solution A (pH 7.0) to a concentration of 15 μM, and was allowed to stand on for 30 min to form a GDP-Rac complex. Bodipy-FL-GTP was added to a concentration of 3.6 μM to 100 μL of the reaction solution A that contained the thus-prepared GDP-Rac complex, and equilibrated at 30° C. for 2 minutes. After equilibration, 50 μL of the GEF pretreated product prepared as described above was added and reacted at 30° C.
Changes in fluorescence intensity of Bodipy-FL-GTP in the reaction solutions were monitored using an EnSpire spectrofluorometer (Perkin Elmer) (excitation wavelength: 488 nm, fluorescence wavelength: 514 nm). The measured values were corrected so that the fluorescence intensity at the beginning of the reaction (0 sec) was 0. Then, an approximate curve (hyperbola) was obtained by plotting the calculated correction values on the y-axis and the time (t) on the x-axis using GraphPad Prism5 (GraphPad software), and the slope at t=0 to 10 seconds was defined as the initial velocity of the guanine nucleotide exchange reaction. The IC50 value was calculated taking the initial reaction velocity of the control, to which only a solvent (DMSO) was added, as 100%.
Based on the obtained results, columns A and B of FIG. 1, FIG. 2, FIG. 3-1, and FIG. 3-2 show the results evaluating the inhibitory effect on Rac activation by DOCK1 (DHR-2 domain) (IC50 value), and DOCK1-selective inhibitory effect (DOCK1/DOCK2 selectivity) of each test compound. The inhibitory effect on Rac activation by DOCK1 (DHR-2 domain) (IC50 value) was determined from the reaction inhibition curve plotted using values of Rac activation by the DOCK1 DHR-2 domain in the presence of various concentrations of the test compounds, taking the values of the control as 100%. […]

[1] = test system: mouse lung carcinoma cell line (3LL cells); test: Cell invasion inhibition assay (Matrigel invasion chamber); format: cell-based; settings: in words
Protocol: In this Pharmacological Test, the inhibitory effect of each test compound on cell invasion response was evaluated using a mouse lung carcinoma cell line (3LL cells), a mouse pancreatic cancer cell line (PANC02 cells), and a human breast cancer cell line (MDA-MB-157 cells). Of these, the mouse lung carcinoma cell line (3LL) is a cancer cell line with mutant Ras (K-Ras (G12C)), and the human breast cancer cell line (MDA-MB-157) is a cancer cell line with mutant Rac (Rac1 (P29S)). The experiments were performed in BD BioCoat Matrigel invasion chambers (BD Biosciences).
Specifically, an upper chamber with a Matrigel-coated membrane insert (8 μm pores) at the bottom was equilibrated with DMEM (serum-free medium) for 120 minutes. Thereafter, 300 μL of a suspension of a cancer cell line in DMEM (serum-free) was placed in the upper chamber while 500 μL of DMEM (with 10 mass % FCS) was placed in the lower chamber. Each test compound dissolved in DMSO at a predetermined concentration was added to both the culture media in the upper and lower chambers. As a control, DMSO alone was added to both the culture media in the upper and lower chambers. In all of the experiments, the final DMSO concentration in the culture media was adjusted to 0.2 mass %.
The resulting products were cultured under 5% CO2 at 37° C. for 22 hours (3LL and PANC02 cells) or 48 hours (MDA-MB-157 cells). Then, the upper chamber was removed, and the culture medium was removed. Thereafter, non-invading cells remaining in the upper chamber were removed using a cotton swab, and the cells remaining outside the bottom of the upper chamber (cells that had invaded into the Matrigel, and passed through the membrane insert) were stained with Diff-Quick (Sysmex). After staining, the membrane inserts with Matrigel were cut out using a scalpel to prepare slides, and the number of invading cells was counted under an optical microscope.
The results were evaluated based on percent cell invasion (%: Invasion) and percent inhibition (%: Inhibition). The percent cell invasion was obtained by converting the number of invading cells in the presence of each test compound into a percentage, taking the number of invading cells in the control test, in which DMSO was added alone, as 100%; and the percent inhibition was obtained by deducting the percent cell invasion from 100.

SMILES	selective inhibitory activity against DOCK1 versus DOCK2 (DOCK1 (DHR-2 domain))	percent cell invasion inhibition compared with TBOPP [1]	DOCK1-inhibiting activity compared with TBOPP (DOCK1 (DHR-2 domain); GEF assay)	selective inhibitory activity against DOCK1 compared to TBOPP (DOCK1 (DHR-2 domain); GEF assay)
COC(=O)c1cc(S(=O)(=O)N2CCCC2)cn1CC(O)c1ccc(-c2cccc(C(F)(F)F)c2)cc1 (stereo not shown) [HS-6, methyl 1-(2-hydroxy-2-(3′-(trifluoromethyl)-[1,1′-biphenyl]-4-yl)ethyl)-4-(pyrrolidin-1-yl-sulfonyl)-1H-pyrrole-2-carboxylate]	higher selective inhibitory activity against DOCK1 than against DOCK2	higher percent cell invasion inhibition than TBOPP		
CC(=O)c1cc(S(=O)(=O)N2CCCC2)cn1CC(=O)c1ccc(-c2cccc(C(F)(F)F)c2)cc1 [HS-16, 2-(2-acetyl-4-(pyrrolidin-1-yl-sulfonyl)-1H-pyrrol-1-yl)-1-(3′-(trifluoromethyl)-[1,1′-biphenyl]-4-yl)ethane-1-one]	higher selective inhibitory activity against DOCK1 than against DOCK2	higher percent cell invasion inhibition than TBOPP		
Cc1cc(-c2ccc(C(=O)Cn3cc(S(=O)(=O)N4CCCC4)ccc3=O)cc2)ccc1N(C)C [KS-16, 1-(2-(4′-(dimethylamino)-3′-methyl-[1,1′-biphenyl]-4-yl)-2-oxoethyl)-5-(pyrrolidin-1-yl-sulfonyl)pyridin-2(1H)-one]		higher percent cell invasion inhibition than TBOPP		
O=C(Cn1cc(S(=O)(=O)N2CCCC2)ccc1=O)c1ccc(-c2ccc3cccnc3c2)cc1 [KS-18, 1-(2-oxo-2-(4-(quinolin-7-yl)phenyl)ethyl)-5-(pyrrolidin-1-yl-sulfonyl)pyridin-2(1H)-one]		higher percent cell invasion inhibition than TBOPP		
O=C(Cn1cc(S(=O)(=O)N2CCCC2)ccc1=O)c1ccc(-c2cccc(SC(F)(F)F)c2)cc1 [KS-21, 1-(2-oxo-2-(3′-((trifluoromethyl)thio)-[1,1′-biphenyl]-4-yl)ethyl)-5-(pyrrolidin-1-yl-sulfonyl)pyridin-2(1H)-one]		higher percent cell invasion inhibition than TBOPP		
O=C(Cn1cc(S(=O)(=O)N2CCCC2)ccc1=O)c1ccc(-c2cccc(C(F)(F)F)n2)cc1 [KS-22, 1-(2-oxo-2-(4-(6-(trifluoromethyl)pyridin-2-yl)phenyl)ethyl)-5-(pyrrolidin-1-yl-sulfonyl)pyridin-2(1H)-one]		higher percent cell invasion inhibition than TBOPP		
O=C(Cn1cc(S(=O)(=O)N2CCCC2)ccc1=O)c1ccc(-c2ccc3ncccc3c2)cc1 [KS-23, 1-(2-oxo-2-(4-(quinolin-6-yl)phenyl)ethyl)-5-(pyrrolidin-1-yl-sulfonyl)pyridin-2(1H)-one]		higher percent cell invasion inhibition than TBOPP		
O=C(Cn1cc(S(=O)(=O)N2CCC(c3ccc(-c4cc(F)c(F)c(F)c4)cc3)CC2)ccc1=O)c1ccc(-c2cc(F)c(F)c(F)c2)cc1 [KS-59, 1-(2-oxo-2-(3′,4′,5′-trifluoro-[1,1′-biphenyl]-4-yl)ethyl)-5-((4-(3′,4′,5′-trifluoro-[1,1′-biphenyl]-4-yl)piperidin-1-yl)sulfonyl)pyridin-2(1H)-one]	higher selective inhibitory activity against DOCK1 than against DOCK2	higher than those of TBOPP	higher than those of TBOPP	higher than those of TBOPP
Nc1cc(S(=O)(=O)N2CCCC2)cn(CC(=O)c2ccc(-c3cccc(C(F)(F)F)c3)cc2)c1=O [RT-13, 3-amino-1-(2-oxo-2-(3′-(trifluoromethyl)-[1,1′-biphenyl]-4-yl)ethyl)-5-(pyrrolidin-1-yl-sulfonyl)pyridin-2(1H)-one]		higher percent cell invasion inhibition than TBOPP		
O=C(Cn1cc(S(=O)(=O)N2CCCC2)cc1-c1ncco1)c1ccc(-c2cccc(C(F)(F)F)c2)cc1 [RT-58, 2-(2-(oxazol-2-yl)-4-(pyrrolidin-1-yl-sulfonyl)-1H-pyrrol-1-yl)-1-(3′-(trifluoromethyl)-[1,1′-biphenyl]-4-yl)ethan-1-one]	higher selective inhibitory activity against DOCK1 than against DOCK2	higher percent cell invasion inhibition than TBOPP		
